Target: H1 receptor (Homo sapiens, UniProt P35367)
Experiment: H1 competitive radioligand binding assay
Settings: H1 versus 5-HT2A, from Ki values

Sequence of H1 receptor (P35367 whole entry): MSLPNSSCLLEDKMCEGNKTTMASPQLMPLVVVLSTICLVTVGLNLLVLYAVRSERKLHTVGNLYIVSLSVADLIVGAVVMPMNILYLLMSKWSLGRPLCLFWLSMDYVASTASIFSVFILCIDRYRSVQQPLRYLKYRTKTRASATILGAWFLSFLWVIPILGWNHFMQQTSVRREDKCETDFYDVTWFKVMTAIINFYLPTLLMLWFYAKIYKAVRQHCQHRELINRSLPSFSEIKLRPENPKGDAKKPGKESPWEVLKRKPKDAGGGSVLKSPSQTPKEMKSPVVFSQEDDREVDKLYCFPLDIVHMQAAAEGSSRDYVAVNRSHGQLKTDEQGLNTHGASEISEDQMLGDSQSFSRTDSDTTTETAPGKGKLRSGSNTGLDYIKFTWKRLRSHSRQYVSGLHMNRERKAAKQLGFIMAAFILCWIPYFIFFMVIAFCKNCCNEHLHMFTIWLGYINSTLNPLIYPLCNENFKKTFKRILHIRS

CN(C)CCCC1c2ccccc2Cc2ccccc21 [Compound 3c]
selectivity for the H1 receptor: 44 fold

Source: publication PMC3088504 (Bioorganic & medicinal chemistry, 2009)
